Drawing on US20250059159A1, “PLPRO INHIBITORS” (SHANGHAI SYNERGY PHARMACEUTICAL SCIENCES CO., LTD., priority 2021, published 2025), this text covers IC50 and EC50 for 21 molecules.

One experiment concerns the target SARS-CoV-2 PLpro (Severe acute respiratory syndrome coronavirus 2 (2019-nCoV) (SARS-CoV-2), UniProt P0DTD1). The experiment can be described thus: PLpro enzymatic inhibition assay (IC50 value determination). The experiment is classed as biochemical. The settings on record: 60 min preincubation for covalent inhibitors, 10 min for non-covalent, read-out: Inhibition of SARS-CoV-2 PLpro IC50 range.

A further experiment concerns SARS-CoV2 (Omicron). The experiment in a line: SARS-CoV2 antiviral cellular activity assay in A549:hACE2 cells. It counts as cell-based. The settings on record: Severe acute respiratory syndrome coronavirus 2, 48 h; read-out: Antiviral cellular EC50 range (Omicron).

For `C#CCNC(=O)CNC(=O)CN(C1CCN(C(C)c2ccc(F)c3ccccc23)CC1)S(C)(=O)=O` (centres unmarked) [Compound 107], the IC50 (commonly the point on the concentration scale where inhibition reaches its midpoint) at SARS-CoV-2 PLpro is below 100 nM. The EC50 (usually the concentration at which the effect is half-maximal) with SARS-CoV2 (Omicron) was 100 to 1000 nM.
Consider `COC(=O)/C=C/CNC(=O)CNC(=O)CN(C1CCN([C@H](C)c2cccc3ccccc23)CC1)S(C)(=O)=O` [Compound 20, methyl (R,E)-4-(2-(2-(N-(1-(1-(naphthalen-1-yl)ethyl)piperidin-4-yl)methylsulfonamido)acetamido)acetamido)but-2-enoate], for which the 50% inhibitory concentration (IC50) on SARS-CoV-2 PLpro was below 100 nM. Moreover, the EC50 in the experiment on SARS-CoV2 (Omicron) is below 100 nM.
As for `C#CCNC(=O)CNC(=O)CN(C1CCN([C@H](C)c2cccc3ccccc23)CC1)S(=O)(=O)C1CC1` [Compound 60, (R)-2-(N-(1-(1-(naphthalen-1-yl)ethyl)piperidin-4-yl)cyclopropanesulfonamido)-N-(2-oxo-2-(prop-2-yn-1-ylamino)ethyl)acetamide], the IC50 at SARS-CoV-2 PLpro was below 100 nM. Moreover, in the experiment on SARS-CoV2 (Omicron), the EC50 is below 100 nM.
Regarding `C#CCNC(=O)CNC(=O)CN(C1CCN([C@H](C)c2cccc3ccccc23)CC1)S(=O)(=O)c1ccccc1` [Compound 63, (R)-2-(N-(1-(1-(naphthalen-1-yl)ethyl)piperidin-4-yl)phenylsulfonamido)-N-(2-oxo-2-(prop-2-yn-1-ylamino)ethyl)acetamide], the IC50 at SARS-CoV-2 PLpro is below 100 nM. Besides, the EC50 in the experiment with SARS-CoV2 (Omicron) is below 100 nM.
Consider `C#CCNC(=O)CNC(=O)CN(C1CCN([C@H](C)c2cccc3ccccc23)CC1)S(=O)(=O)C(F)(F)F` [Compound 80, (R)—N-(2-oxo-2-(prop-2-yn-1-ylamino)ethyl)-2-((1,1,1-trifluoro-N-(1-(1-(naphthalen-1-yl)ethyl)piperidin-4-yl)methyl)sulfonamido)acetamide], for which the 50% inhibitory concentration (IC50) at SARS-CoV-2 PLpro is below 100 nM. Further, the 50% effective concentration (EC50) in the experiment with SARS-CoV2 (Omicron) lay in the range of 100 to 1000 nM.
For the molecule `C#CCNC(=O)CNC(=O)CN(C1CCN([C@H](C)c2cccc3ccccc23)CC1)S(C)(=O)=O` [Compound 21, (R)-2-(N-(1-(1-(naphthalen-1-yl)ethyl)piperidin-4-yl)methylsulfonamido)-N-(2-oxo-2-(prop-2-yn-1-ylamino)ethyl)acetamide], the 50% inhibitory concentration (IC50) on SARS-CoV-2 PLpro was below 100 nM. The EC50 in the experiment with SARS-CoV2 (Omicron) is below 100 nM.
In the case of `COC(=O)/C=C/CNC(=O)CNC(=O)CN(/C=C/C(=O)C(F)(F)F)C1CCN([C@H](C)c2cccc3ccccc23)CC1` [Compound 67, methyl (E)-4-(2-(2-((1-((R)-1-(naphthalen-1-yl)ethyl)piperidin-4-yl)((E)-4,4,4-trifluoro-3-oxobut-1-en-1-yl)amino)acetamido)acetamido)but-2-enoate], on SARS-CoV-2 PLpro, the IC50 was below 100 nM.
`C#CCNC(=O)CNC(=O)CN(C1CCN(C(C)c2ccccc2C(F)(F)F)CC1)S(C)(=O)=O` (centres unmarked) [Compound 102, N-(2-oxo-2-(prop-2-yn-1-ylamino)ethyl)-2-(N-(1-(1-(2-(trifluoromethyl)phenyl)ethyl)piperidin-4-yl)methylsulfonamido)acetamide]: on SARS-CoV-2 PLpro, the half-inhibitory concentration (IC50) is 100 to 1000 nM.
Regarding `C#CCNC(=O)CNC(=O)CN(C1CCN(C(C)c2ccc(Cl)cc2Cl)CC1)S(C)(=O)=O` (centres unmarked) [Compound 120, 2-(N-(1-(1-(2,4-dichlorophenyl)ethyl)piperidin-4-yl)methylsulfonamido)-N-(2-oxo-2-(prop-2-yn-1-ylamino)ethyl)acetamide], at SARS-CoV-2 PLpro, the concentration for half-maximal inhibition (IC50) fell in the range of 100 to 1000 nM.
On the same count and under the same terms, the same measure for `COC(=O)/C=C/CNC(=O)CNC(=O)CN(C1CCN([C@H](C)c2cccc3ccccc23)CC1)S(N)(=O)=O` [Compound 22, methyl (R,E)-4-(2-(2-((1-(1-(naphthalen-1-yl)ethyl)piperidin-4-yl)(sulfamoyl)amino)acetamido)acetamido)but-2-enoate]: below 100 nM; for `C#Cc1nnc(NC(=O)CN(C2CCN(C(C)c3cccc4ccccc34)CC2)S(C)(=O)=O)o1` (centres unmarked) [Compound 170, N-(5-ethynyl-1,3,4-oxadiazol-2-yl)-2-(N-(1-(1-(naphthalen-1-yl)ethyl)piperidin-4-yl)methylsulfonamido)acetamide]: 1000 to 10000 nM; for `COC(=O)/C=C/CNC(=O)CNC(=O)CN(C(=O)Cc1ccc2c(c1)OCO2)C1CCN([C@H](C)c2cccc3ccccc23)CC1` [Compound 2, methyl (R,E)-4-(2-(2-(2-(benzo[d][1,3]dioxol-5-yl)-N-(1-(1-(naphthalen-1-yl)ethyl)piperidin-4-yl)acetamido)acetamido)acetamido)but-2-enoate]: 100 to 1000 nM.
Same read-out and setting: for `C#CCNC(=O)CNC(=O)[C@@H](C)N(C1CCN([C@H](C)c2cccc3ccccc23)CC1)S(C)(=O)=O` [Compound 152, (R)-2-(N-(1-((R)-1-(naphthalen-1-yl)ethyl)piperidin-4-yl)methylsulfonamido)-N-(2-oxo-2-(prop-2-yn-1-ylamino)ethyl)propanamide] the value was below 100 nM; for `C#CCNC(=O)CNC(=O)CN(C1CCN(C(C)c2cccc(C)c2Cl)CC1)S(C)(=O)=O` (centres unmarked) [Compound 142, 2-(N-(1-(1-(2-chloro-3-methylphenyl)ethyl)piperidin-4-yl)methylsulfonamido)-N-(2-oxo-2-(prop-2-yn-1-ylamino)ethyl)acetamide], 100 to 1000 nM.
On to `C#CCNC(=O)CNC(=O)CN(C1CCN(C(C)c2cccc(Br)c2)CC1)S(C)(=O)=O` (centres unmarked) [Compound 108, 2-(N-(1-(1-(3-bromophenyl)ethyl)piperidin-4-yl)methylsulfonamido)-N-(2-oxo-2-(prop-2-yn-1-ylamino)ethyl)acetamide], for which, at SARS-CoV-2 PLpro, the half-maximal inhibitory concentration (IC50) lay in the range of 100 to 1000 nM.
Still for that read-out and setting: for `C#CCNC(=O)CNC(=O)CN(C1CCN(C(C)c2cccc3ccccc23)CC1)S(=O)(=O)N1CCN(CC(=O)OCC)CC1` (centres unmarked) [Compound 115, ethyl 2-(4-(N-(1-(1-(naphthalen-1-yl)ethyl)piperidin-4-yl)-N-(2-oxo-2-((2-oxo-2-(prop-2-yn-1-ylamino)ethyl)amino)ethyl)sulfamoyl)piperazin-1-yl)acetate] the value was below 100 nM; for `C#CCNC(=O)CNC(=O)CN(C1CCN(C(C)c2c(Cl)cccc2Cl)CC1)S(C)(=O)=O` (centres unmarked) [Compound 125, 2-(N-(1-(1-(2,6-dichlorophenyl)ethyl)piperidin-4-yl)methylsulfonamido)-N-(2-oxo-2-(prop-2-yn-1-ylamino)ethyl)acetamide], 100 to 1000 nM.
The same measure, in the same setting: the same measure for `C#CCCNC(=O)CNC(=O)CN(C1CCN([C@H](C)c2cccc3ccccc23)CC1)S(C)(=O)=O` [Compound 127, (R)—N-(but-3-yn-1-yl)-2-(2-(N-(1-(1-(naphthalen-1-yl)ethyl)piperidin-4-yl)methylsulfonamido)acetamido)acetamide]: 100 to 1000 nM; for `C#CCNC(=O)CNC(=O)CN(C1CCN(C(C)c2ccc3ccccc3c2)CC1)S(C)(=O)=O` (centres unmarked) [Compound 110, 2-(N-(1-(1-(naphthalen-2-yl)ethyl)piperidin-4-yl)methylsulfonamido)-N-(2-oxo-2-(prop-2-yn-1-ylamino)ethyl)acetamide]: below 100 nM.
For `C#CCNC(=O)CNC(=O)CN(CCC(C)=O)C1CCN([C@H](C)c2cccc3ccccc23)CC1` [Compound 79, (R)-2-((1-(1-(naphthalen-1-yl)ethyl)piperidin-4-yl)(3-oxobutyl)amino)-N-(2-oxo-2-(prop-2-yn-1-ylamino)ethyl)acetamide], the IC50 on SARS-CoV-2 PLpro was below 100 nM. Moreover, the EC50 with SARS-CoV2 (Omicron) lay within 100 to 1000 nM.
In the case of `C#CCNC(=O)CNC(=O)CN(C1CCN([C@H](C)c2cccc3ccccc23)CC1)S(=O)(=O)N1CCCC1` [Compound 65, (R)-2-(N-(1-(1-(naphthalen-1-yl)ethyl)piperidin-4-yl)pyrrolidine-1-sulfonamido)-N-(2-oxo-2-(prop-2-yn-1-ylamino)ethyl)acetamide], the IC50 at SARS-CoV-2 PLpro is below 100 nM. Moreover, the concentration giving a half-maximal response (EC50) in the experiment with SARS-CoV2 (Omicron) was below 100 nM.
